In experiment [1] the target is T1, human fibrillarin (hFBL) (Homo sapiens, UniProt P22087).
T1 construct: gene FBL; methyltransferase domain (residues 83–321)
T1 sequence (P22087 83-321): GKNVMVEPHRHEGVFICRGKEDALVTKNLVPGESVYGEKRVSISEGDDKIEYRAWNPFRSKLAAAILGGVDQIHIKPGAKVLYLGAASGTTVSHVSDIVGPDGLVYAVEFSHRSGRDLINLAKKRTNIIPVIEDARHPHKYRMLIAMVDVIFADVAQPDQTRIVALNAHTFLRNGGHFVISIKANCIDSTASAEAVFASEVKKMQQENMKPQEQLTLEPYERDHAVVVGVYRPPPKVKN
Description: STD NMR competition with SAM. It is filed as binding.

Experiment [2] concerns the target T1, human fibrillarin (hFBL). Description: biochemical. More on the design: SPR binding affinity of compounds to human fibrillarin methyltransferase domain. The note with it: SPR. From the text:
In addition, electron density for 1a was not observed beyond the amide linker, which appeared to be turning away from the catalytic site and pointing towards the bulk solvent. […] Indeed, the binding affinity of 1a turned out to be similar to that of 1 (Supplemental Table S3). […] Additionally, the extended piperidine ring in 2a was engaged in multiple hydrophobic interactions with residues G167, D236, and V237 with a stable chair conformation.

For experiment [3], the target named is T1, human fibrillarin (hFBL). The experiment can be described thus: crystal structure (soak; no density beyond the amide linker); STD NMR competition with SAM; SPR. It is filed as binding.
Experiment [4] deals with T1, human fibrillarin (hFBL). Description: ITC; also SPR (Kd […]), STD NMR and crystal structure. The format is binding. On the technique in general: ITC needs no label: the signal is the heat of the interaction.
Experiment [5] deals with T1, human fibrillarin (hFBL). The experiment can be described thus: crystal structure (soak); STD NMR competition with SAM; SPR. The format is binding.

By Kd is commonly meant the constant that tells how readily two partners part at equilibrium. High values mean a looser complex, low ones a tighter complex. As to `FC(F)(F)c1cc(NC2CCOCC2)ncn1` [2b], the “STD NMR competition with SAM” value in experiment [1] is “both 2a and 2b were shown to compete with cofactor binding by STD NMR assays”. The compound further returned a Kd in experiment [2] of 250 ± 20 µM.
With `Nc1cc(C(F)(F)F)ncn1` [compound 2, FS-2818], in experiment [2], binding was put at a Kd of 2700 ± 780 µM.
Turning to `O=C(O)Cc1cn2nc(C(F)(F)F)cc2c(=O)[nH]1` [1e, 2-(4-Oxo-2-(trifluoromethyl)-4,5-dihydropyrazolo[1,5-a]pyrazin-6-yl)acetic acid], in experiment [1], the “STD NMR competition with SAM” value is “a synthetic intermediate without the amino acid 1e were also shown to compete with SAM binding to hFBL”.
`N[C@@H](CCCNC(=O)Cc1cn2nc(C(F)(F)F)cc2c(=O)[nH]1)C(=O)O` [1d, (S)-2-Amino-5-(2-(4-oxo-2-(trifluoromethyl)-4,5-dihydropyrazolo[1,5-a]pyrazin-6-yl)acetamido)pentanoic acid]: the “STD NMR competition with SAM” value in experiment [1] was “In addition to 1a, 1c, 1d, and a synthetic intermediate without the amino acid 1e were also shown to compete”. This compound returned a Kd in experiment [2] of 3350 ± 480 µM.
For `N[C@H](Cc1cccc(NC(=O)Cc2cn3nc(C(F)(F)F)cc3c(=O)[nH]2)c1)C(=O)O` [1a, (R)-2-Amino-3-(3-(2-(4-oxo-2-(trifluoromethyl)-4,5-dihydropyrazolo[1,5-a]pyrazin-6-yl)acetamido)phenyl)propanoic acid], the “crystal structure (soak; no density beyond the amide linker); STD NMR competitio” value in experiment [3] is “complex structures were obtained for 1a (PDB code: 7SEC) and 2a (PDB code: 7SED)”. Also, binding in experiment [2] was characterised by a dissociation constant (Kd) of 510 ± 50 µM.
Regarding `N[C@@H](Cc1cccc(NC(=O)Cc2cn3nc(C(F)(F)F)cc3c(=O)[nH]2)c1)C(=O)O` [1c, (S)-2-Amino-3-(3-(2-(4-oxo-2-(trifluoromethyl)-4,5-dihydropyrazolo[1,5-a]pyrazin-6-yl)acetamido)phenyl)propanoic acid], the “STD NMR competition with SAM” value in experiment [1] is listed as “without the amino acid 1e were also shown to compete with SAM binding to hFBL in solution by STD NMR”. In experiment [2], this compound had a Kd of 2660 ± 40 µM.
As for `C[S@@+](CC[C@H](N)C(=O)[O-])C[C@H]1O[C@@H](n2cnc3c(N)ncnc32)[C@H](O)[C@@H]1O` [SAM], the Kd in experiment [4] came to 14 ± 0.8 µM; in experiment [2] it was 33.7 ± 7.7 µM.
For `FC(F)(F)c1cc(NC2CCNCC2)ncn1` [2a], the “crystal structure (soak); STD NMR competition with SAM; SPR” value in experiment [5] is “complex structures were obtained for 1a (PDB code: 7SEC) and 2a (PDB code: 7SED)”. The compound further yielded a Kd in experiment [2] of 43.8 ± 2.2 µM.
With `Cc1cn2cc(C(F)(F)F)cc2c(=O)[nH]1` [compound 1, PS-6655], binding in experiment [2] was characterised by a dissociation constant (Kd) of 520 ± 40 µM.

For the origin of these results see publication PMC8779173, “Discovery of Cofactor Competitive Inhibitors against the Human Methyltransferase Fibrillarin” (Pharmaceuticals, 2021).
